From patent US4758551A (priority 1986, dated 1988)
Numbered stars: 1 amine (or outer) side, 2 acyl side, 3 side chain; on linkers, the order of the positions; unused ones are H or OH. Peptide text beside a SMILES is read from it. γGlu = O=C(O)[C@H](CCC(=O)[*:2])N[*:1]

Tests used:
Male Swiss Webster mice [1] = test: Induction of glutathionuria by gamma-glutamyl compounds in mice (urinary glutathione); type: in vivo; conditions: for Urinary GSH: subcutaneous, 200 mM neutral solution, dose 4 mM per kilogram of body weight, urine collected for 1 hour
Description: Male Swiss Webster mice (20-27 g) were obtained from Taconic Farms (Germantown, N.Y.) and Hilltop Lab Animals (Scottsdale, Pa.).
(§1) The mice were fed ad libitum. Their urinary bladders were emptied by gentle abdominal pressure prior to subcutaneous injection of the gamma-glutamyl amino acids and urine was collected at 15 minute intervals for 1 hour in a tube containing 5 μl of 50% (w/v) 5-sulfosalicyclic acid. Elevated plasma glutathione levels were occasionally found after moderate abdominal pressure was applied to mice. For this reason, studies of urinary and plasma glutathione levels were carried out on different groups of mice.
(§2) Plasma, kidneys and livers were obtained and processed by well known means (see Anderson, M. E. et al, J. Biol. Chem. 255:9530-9533 (1980) and Anderson, M. E. et al, Methods Enzymol. 113:548-555 (1986)) and the concentration of glutathione therein was determined by the GSSG reductase-DTNB recycling assay (see Anderson, M. E. et al, Methods Enzymol. 113:548-555 (1986), Tietze, F., Analytical Biochem. 27:502-522 (1969) and Owens, C. et al, Biochem. J. 94:705-711 (1965)).
The urine samples were treated with 5mM dithiothreitol (pH 7.0) for 1 hour followed by derivatization with 2-vinylpyridine (see Griffith, O. W., Analytical Biochem. 106:207-212 (1980)). The derivatized samples were chromatographed on the amino acid analyzer using lithium citrate buffers (see Benson, J. V. et al, Anal. Biochem. 18:228-240 (1967)). The elution times for the vinylpyridine derivatives of gamma-glutamyl glutathione, gamma-glutamylcysteine, glutathione, cysteinylglycine and cysteine were 120, 163, 165, 220 and 235 minutes, respectively.
*The mice were injected subcutaneously with a 200 mM neutral solution of
the indicated amino acid (dose, 4 mM per kilogram of body weight) or with
an equivalent volume of saline. Urine was collected for 1 hour.

[2] = molecular target: T1, purified rat kidney gamma-glutamyl transpeptidase (Rattus norvegicus, UniProt P07314); test: Gamma-glutamyl transpeptidase activity assay with L-gamma-glutamyl-p-nitroanilide (apparent Khi, Dixon plot); type: biochemical
T1 construct: Highly purified rate kidney gamma-glutamyl transpeptidase was prepared by well known means; from tissue; host or cells: rat kidney
T1 sequence (P07314 1-379 limits assumed): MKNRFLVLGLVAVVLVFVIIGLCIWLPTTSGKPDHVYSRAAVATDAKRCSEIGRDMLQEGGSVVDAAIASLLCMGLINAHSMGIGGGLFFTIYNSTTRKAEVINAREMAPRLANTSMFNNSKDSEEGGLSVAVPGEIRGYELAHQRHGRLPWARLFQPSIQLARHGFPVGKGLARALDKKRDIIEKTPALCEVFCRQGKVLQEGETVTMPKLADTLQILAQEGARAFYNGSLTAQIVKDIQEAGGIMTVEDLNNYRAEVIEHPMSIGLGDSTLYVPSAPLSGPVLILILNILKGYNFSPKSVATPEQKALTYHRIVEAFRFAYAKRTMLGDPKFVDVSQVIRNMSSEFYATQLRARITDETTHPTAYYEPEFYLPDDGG
T1 sequence (P07314 380-568 limits assumed): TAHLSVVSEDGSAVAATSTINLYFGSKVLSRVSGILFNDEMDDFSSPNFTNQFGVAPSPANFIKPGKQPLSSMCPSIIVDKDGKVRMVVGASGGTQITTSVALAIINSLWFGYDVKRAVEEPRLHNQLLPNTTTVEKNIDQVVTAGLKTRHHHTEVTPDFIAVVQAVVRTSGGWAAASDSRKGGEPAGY
Description: Highly purified rate kidney gamma-glutamyl transpeptidase was prepared by well known means (see Tate, S. S. et al, Methods Enzymol. 113:400-419 (1986)). Bovine and porcine gamma-glutamyl transpeptidase can be obtained from Sigma Chemical Co. (St. Louis, Mo.).
Gamma-glutamyl transpeptidase activity was assayed using L-gamma-glutamyl-p-nitroanilide and the rate of formation of p-nitroaniline at 405 nm at 37° C. was measured (see Orlowski, M. et al, Biochim. Biophys. Acta 73:679-681 (1973)). The 1 ml final volume enzyme reaction mixture employed contained 40 mM Tris-HCl (pH 7.5), 30 or 60 μM L-gamma-glutamyl-p-nitroanilide, 30 or 150 μM gamma-glutamyl amino acid and 0.115 units gamma-glutamyl transpeptidase. Two different concentrations of substrate were employed for kinetic analyses. The reaction was initiated by adding gamma-glutamyl transpeptidase. The absorbance scale was 0.02 or 0.05 to insure that initial rates were obtained. The apparent hydrolysis Ki (Khi) values were determined from a Dixon plot and normalized to the apparent Km value for 6 μM L-gamma-glutamyl-p-nitroanilide (see Thompson, G. A. et al, Biochem. Biophys, Res. Commun. 71:32-36 (1976)).
The values for the apparent Khi for a number of gamma-glutamyl amino acids using purified rat kidney gamma-glutamyl transpeptidase are shown in the Figure. […]

[3] = In vivo conversion of the administered gamma-glutamyl compound
Source text: The values for the apparent Khi for a number of gamma-glutamyl amino acids using purified rat kidney gamma-glutamyl transpeptidase are shown in the Figure. These values were plotted against the urinary glutathione obtained in the in vivo studies and a fairly close correlation was found. That is, the apparent affinity of gamma-glutamyl transpeptidase or gamma-glutamyl amino acid substrates varies over about a 6-fold range. In contrast, the affinity for the corresponding free amino acids varies over a range of several hundred (see Tate, S. S. et al, J. Biol. Chem. 249:7593-7602 (1974)).

Male Swiss Webster mice [4] = conditions: similar protocol (Griffith 1979); cited from earlier work
Male Swiss Webster mice [5] = conditions: cited from earlier work
Male Swiss Webster mice [6] = test: Glutathione levels of kidney, liver and blood plasma of mice after administration; type: in vivo; conditions: experimental period 1 hour
Description: as §1, §2

[7] = molecular target: T1, purified rat kidney gamma-glutamyl transpeptidase; conditions: free amino acids (Tate 1974); cited from earlier work
mice = conditions: cited from earlier work
[8] = mice, after administration of the hydrazide

| Compound | Urinary GSH (Male Swiss Webster mice [1]) [mM] | further results |
| --- | --- | --- |
| CC[C@H](NC(=O)CC[C@H](N)C(=O)O)C(=O)O | 1.52 ± 0.38 | – |
| N[C@@H](CCC(=O)N[C@@H](CSSC[C@H](NC(=O)CC[C@H](N)C(=O)O)C(=O)O)C(=O)O)C(=O)O [(L-Gamma-Glu-- L-Cys)2, (L-gamma-Glu-L-Cys)2] | 5.77 ± 1.05 | Urinary GSH (Male Swiss Webster mice [1]; listed as gamma-glutamylcysteine disulfide): about 6 mM |
| CSCC[C@H](NC(=O)CC[C@@H](N)C(=O)O)C(=O)O [D-Gamma-Glu-- L-Met, D-Gamma-Glu-L-Met] | 0.18 ± 0.05 | – |
| N[C@@H](CSSC[C@H](N)C(=O)O)C(=O)O [L-Cystine, reference compound] | < 0.03 | – |
| N[C@@H](CCCCNC(=O)CC[C@H](N)C(=O)O)C(=O)O [L-Gamma-- ε-L-Lys, L-Gamma-Glu-ε-L-Lys] | 0.77 ± 0.17 | – |
| N[C@@H](CCC(=O)NCC(=O)O)C(=O)O [L-Gamma-Glu-- Gly, L-Gamma-Glu-Gly] | 2.67 ± 0.40 | – |
| N[C@@H](CCC(=O)NCC(=O)NCC(=O)O)C(=O)O [L-Gamma-Glu-- Gly--Gly, L-Gamma-Glu-Gly-Gly] (γGlu-Gly-Gly-OH) | 3.29 ± 1.16 | gamma-glutamyl glutathione in the urine (Male Swiss Webster mice [1]): significant amounts; urinary gamma-glutamyl cysteine relative to urinary glutathione (Male Swiss Webster mice [1]; vinylpyridine derivative, amino acid analyzer): about 10% |
| N[C@@H](CCC(=O)N[C@@H](CSSC[C@H](NC(=O)CC[C@H](N)C(=O)O)C(=O)O)C(=O)O)C(=O)O [L-Gamma-Glu-- L-(Cys)2, L-Gamma-Glu-L-(Cys)2] | 2.63 ± 0.33 | – |
| C[C@H](NC(=O)CC[C@H](N)C(=O)O)C(=O)O [L-Gamma-Glu-- L-Ala, L-Gamma-Glu-L-Ala] | 5.69 ± 1.26 | affinity for / interaction with gamma-glutamyl transpeptidase [2]: much higher affinity; gamma-glutamyl glutathione in the urine (Male Swiss Webster mice [1]): significant amounts |
| N[C@@H](CCC(=O)N[C@@H](CC(=O)O)C(=O)O)C(=O)O [L-Gamma-Glu-- L-Asp, L-Gamma-Glu-L-Asp] | 0.26 ± 0.10 | – |
| C[C@H](NC(=O)CC[C@H](NC(=O)CC[C@H](N)C(=O)O)C(=O)O)C(=O)O [L-Gamma-Glu-- L-Gamma-Glu-- L-Ala, L-Gamma-Glu-L-Gamma-Glu-L-Ala] | 5.07 ± 0.73 | in vivo conversion [3]: rapidly converted in vivo to gamma-glutamyl alanine; induction of glutathionuria (Male Swiss Webster mice [1]): induced glutathionuria |
| NC(=O)CC[C@H](NC(=O)CC[C@H](N)C(=O)O)C(=O)O [L-Gamma-Glu-- L-Gln, L-Gamma-Glu-L-Gln] | 1.17 ± 0.55 | – |
| N[C@@H](CCC(=O)N[C@@H](CCC(=O)O)C(=O)O)C(=O)O [L-Gamma-Glu-- L-Glu, L-Gamma-Glu-L-Glu] | 5.28 ± 1.05 | – |
| CC[C@H](C)[C@H](NC(=O)CC[C@H](N)C(=O)O)C(=O)O [L-Gamma-Glu-- L-Ile, L-Gamma-Glu-L-Ile] | 1.00 ± 0.10 | – |
| CC(C)C[C@H](NC(=O)CC[C@H](N)C(=O)O)C(=O)O [L-Gamma-Glu-- L-Leu, L-Gamma-Glu-L-Leu] | 0.60 ± 0.07 | – |
| CSCC[C@H](NC(=O)CC[C@H](N)C(=O)O)C(=O)O [L-Gamma-Glu-- L-Met, L-Gamma-Glu-L-Met] | 8.54 ± 0.99 | – |
| N[C@@H](CCC(=O)N[C@@H](Cc1ccc(O)cc1)C(=O)O)C(=O)O [L-Gamma-Glu-- L-Tyr, L-Gamma-Glu-L-Tyr] | 3.19 ± 0.80 | – |
| CC(C)[C@H](NC(=O)CC[C@H](N)C(=O)O)C(=O)O [L-Gamma-Glu-- L-Val, L-Gamma-Glu-L-Val] | 0.49 ± 0.25 | – |
| NC(CCC(=O)NNc1ccccc1C(=O)O)C(=O)O [L-gamma-glutamyl-(o-carboxy)phenylhydrazide] | – | glutathione found in the urine (Male Swiss Webster mice [4]): 3.6 to 5.6 mM; plasma glutathione levels (Male Swiss Webster mice [5]; Griffith 1979): marked increases; decrease in kidney glutathione levels (Male Swiss Webster mice [5]; [8]): ~30%; decrease in liver glutathione levels (Male Swiss Webster mice [5]; [8]): ~13% |
| NCCCC[C@H](NC(=O)[C@@H](N)CCC(=O)O)C(=O)O [L-glu-L-(α )-lys, reference compound] (H-Glu-Lys-OH) | < 0.03 | – |
| C[C@H](NC(=O)[C@@H](N)CCC(=O)O)C(=O)O [L-glu-L-ala, reference compound] (H-Glu-Ala-OH) | < 0.03 | – |
| N[C@@H](CCC(=O)O)C(=O)N[C@@H](Cc1ccc(O)cc1)C(=O)O [L-glu-L-tyr, reference compound] (H-Glu-Tyr-OH) | < 0.03 | – |
| CC(C)[C@H](NC(=O)[C@@H](N)CCC(=O)O)C(=O)O [L-glu-L-val, reference compound] (H-Glu-Val-OH) | < 0.03 | – |
| NC(=O)CC[C@H](N)C(=O)O [L-glutamine, L-(and D-)glutamine, reference compound] | < 0.03 | affinity for / interaction with gamma-glutamyl transpeptidase [2]: very poor gamma-glutamyl substrate; induction of glutathionuria (Male Swiss Webster mice [1]): ineffective |
| CSC[C@H](NC(=O)CC[C@H](N)C(=O)O)C(=O)NCC(=O)O [S--Methyl glutathione] | 5.21 ± 1.30 | – |
| N[C@@H](CCC(=O)N[C@@H](CS)C(=O)O)C(=O)O [gamma-glutamylcysteine] | – | effect on kidney glutathione levels (Male Swiss Webster mice [5]; Anderson 1983): increases; effect on liver glutathione levels (Male Swiss Webster mice [6]): does not affect |
| NCCCC[C@H](N)C(=O)O [lysine] | – | acceptor substrate of gamma-glutamyl transpeptidase [7]: extremely poor acceptor substrates |
| NNc1ccccc1C(=O)O [o-carboxyphenylhydrazine] | – | fatal dose (mice): more than 2 mM per kilogram of body weight |
| CC(C)[C@H](N)C(=O)O [valine] | – | acceptor substrate of gamma-glutamyl transpeptidase [7]: extremely poor acceptor substrates |
